One data set has as its system PDE4. The experiment in a line: PDE4 enzyme inhibition assay. The settings on record: 200 μM, 25° C., 1% DMSO vehicle. It counts as biochemical, human. From the text: (§1) In this example, a racemic mixture of monochloroflosequinan and the sulfone derivative of monochloroflosequinan were independently subjected to biochemical enzyme assays to determine their respective percent inhibition of a variety of phosphodiesterases (PDE1-PDE6). The methods used have been adapted from those described in the scientific literature, see Hidaka and Asano “Human blood platelet 3′:5′ cyclic nucleotide phosphodiesterase. Isolation of low-Km and high Km phosphodiesterase.” Biochem. Biophys. […] Unhydrolyzed cAMP was bound to AGI-X2 resin, and the remaining [^3H]adenosine in the aqueous phase was quantitated by scintillation counting. • PDE2: PDE2 partially purified from human platelets was used. […] Unhydrolyzed cAMP was bound to AGI-X2 resin, and the remaining [^3H]adenosine in the aqueous phase was quantitated by scintillation counting. • PDE3: PDE3 partially purified from human platelets was used. […] Unhydrolyzed cAMP was bound to AGI-X2 resin, and the remaining [^3H]adenosine in the aqueous phase was quantitated by scintillation counting. • PDE4: PDE4 partially purified from human U-937 pronocytic cells was used. […] Unhydrolyzed cAMP was bound to AGI-X2 resin, and the remaining [^3H]adenosine in the aqueous phase was quantitated by scintillation counting. • PDE5: PDE5 partially purified from human platelets was used. […]

The next data set concerns the target T1, PDE5 (Homo sapiens, UniProt O76074).
T1 construct: PDE5 partially purified from human platelets was used; from tissue; host or cells: human platelets
The data set is described as follows: PDE5 enzyme inhibition assay. It counts as biochemical. The settings on record: 25° C., 1% DMSO vehicle.
Excerpt: as §1

The nature of data set [1]: Plasma levels following oral administration. It counts as in vivo.

Three molecules from patent US7041677B2, “Use of monochloroflosequinan in the treatment of sexual dysfunction” (R.T. Alamo Ventures I, LLC, priority 2002, dated 2006) can be followed below.

With `Cn1cc([S@@+]([O-])CCl)c(=O)c2ccc(F)cc21` (single isomer, unassigned) [(−)-enantiomer of monochloroflosequinan], the “inhibition of PDE4” value with PDE4 is “greater than 50%”.
Regarding `Cn1cc([S+]([O-])C(Cl)Cl)c(=O)c2ccc(F)cc21` (centres unmarked) [dichloroflosequinan, 3-dichloromethylsulfinyl-7-fluoro-1-methyl-4-quinolone], the “inhibition of PDE5” value on PDE5 (varying concentrations) is “greater than 50%”.
Turning to `Cn1cc([S@+]([O-])CCl)c(=O)c2ccc(F)cc21` (single isomer, unassigned) [(+)-enantiomer of monochloroflosequinan], the “inhibition of PDE5” value on PDE5 (200 μM) is on record as “greater than 50%”. Also, the “time of peak plasma concentrations” value in data set [1] (following oral administration) was 1 to 2 h. In data set [1] (following oral dosage), the “time of peak metabolite plasma levels” value is “about seven”.
